Columns and labels:
Assay type in all cases: in vivo
[1] = system: Echinochloa crus-galli (ECHCG); assay: Pre-emergence herbicidal activity, glasshouse pot test; details: 480 h, rate 250 g/ha, evaluated 20 days later, 100=total damage to plant, 0=no damage to plant
Procedure: (§1) Monocotyledonous and dicotyledonous test plants were sown in standard soil in pots. After cultivation for one day (pre-emergence) or after 10 days cultivation (post-emergence) under controlled conditions in a glasshouse, the plants were sprayed with an aqueous spray solution derived from the formulation of the technical active ingredient in 0.6 ml acetone and 45 ml formulation solution containing 10.6% Emulsogen EL (Registry number 61791-12-6), 42.2% N-methylpyrrolidone, 42.2% dipropylene glycol monomethyl ether (Registry number 34590-94-8) and 0.2% X-77 (Registry number 11097-66-8). The test plants were then grown in a greenhouse under optimum conditions until, 15 days later for post-emergence and 20 days for pre-emergence, the test was evaluated (100=total damage to plant; 0=no damage to plant). Test Plants: Alopecurus myosuroides (ALOMY), Avena fatua (AVEFA), Lolium perenne (LOLPE), Setaria faberi (SETFA), Digitaria sanguinalis (DIGSA), Echinochloa crus-galli (ECHCG)

Avena fatua (AVEFA) [2] = assay: as above; details: 480 h, rate 250 g/ha, evaluated 20 days later, 100=total damage to plant, 0=no damage to plant
Procedure: as §1

[3] = system: Alopecurus myosuroides (ALOMY); assay: as above; details: 480 h, rate 250 g/ha, evaluated 20 days later, 100=total damage to plant, 0=no damage to plant
Procedure: as §1

Lolium perenne (LOLPE) [4] = assay: as above; details: 480 h, rate 250 g/ha, evaluated 20 days later, 100=total damage to plant, 0=no damage to plant
Procedure: as §1

[5] = system: Digitaria sanguinalis (DIGSA); assay: as above; details: 480 h, rate 250 g/ha, evaluated 20 days later, 100=total damage to plant, 0=no damage to plant
Procedure: as §1

Setaria faberi (SETFA) [6] = assay: as above; details: 480 h, rate 250 g/ha, evaluated 20 days later, 100=total damage to plant, 0=no damage to plant
Procedure: as §1

[7] = system: Echinochloa crus-galli (ECHCG); assay: Post-emergence herbicidal activity, glasshouse pot test; details: 360 h, rate 125 g/ha, evaluated 15 days later, 100=total damage to plant, 0=no damage to plant
Procedure: as §1

Avena fatua (AVEFA) [8] = assay: as above; details: 360 h, rate 125 g/ha, evaluated 15 days later, 100=total damage to plant, 0=no damage to plant
Procedure: as §1

[9] = system: Alopecurus myosuroides (ALOMY); assay: as above; details: 360 h, rate 125 g/ha, evaluated 15 days later, 100=total damage to plant, 0=no damage to plant
Procedure: as §1

Lolium perenne (LOLPE) [10] = assay: as above; details: 360 h, rate 125 g/ha, evaluated 15 days later, 100=total damage to plant, 0=no damage to plant
Procedure: as §1

[11] = system: Digitaria sanguinalis (DIGSA); assay: as above; details: 360 h, rate 125 g/ha, evaluated 15 days later, 100=total damage to plant, 0=no damage to plant
Procedure: as §1

Setaria faberi (SETFA) [12] = assay: as above; details: 360 h, rate 125 g/ha, evaluated 15 days later, 100=total damage to plant, 0=no damage to plant
Procedure: as §1

| SMILES | pest or weed control at 250 g/ha [1] | pest or weed control at 250 g/ha (Avena fatua (AVEFA) [2]) | pest or weed control at 250 g/ha [3] | pest or weed control at 250 g/ha (Lolium perenne (LOLPE) [4]) | pest or weed control at 250 g/ha [5] | pest or weed control at 250 g/ha (Setaria faberi (SETFA) [6]) | pest or weed control at 125 g/ha [7] | pest or weed control at 125 g/ha (Avena fatua (AVEFA) [8]) | pest or weed control at 125 g/ha [9] | pest or weed control at 125 g/ha (Lolium perenne (LOLPE) [10]) | pest or weed control at 125 g/ha [11] | pest or weed control at 125 g/ha (Setaria faberi (SETFA) [12]) |
| --- | --- | --- | --- | --- | --- | --- | --- | --- | --- | --- | --- | --- |
| CCc1ccc(-c2ccc(Cl)cc2Cl)cc1C1=C(O)[C@H]2[C@@H](C1=O)[C@@H]1CC[C@H]2O1 (racemic) [Compound T11, (1RS,2SR,6RS,7SR)-4-(2′,4′-dichloro-4-ethylbiphen-3-yl)-10-oxa-tricyclo[5.2.1.0^2,6]decane-3,5-dione] | 100% | 60% | 70% | 80% | 90% | 100% | 100% | 90% | 100% | 50% | 90% | 100% |
| CCc1ccc(-c2ccc(Cl)c(C(F)(F)F)c2)cc1C1=C(O)[C@H]2[C@@H](C1=O)[C@@H]1CC[C@H]2O1 [Compound T17] | 90% | 0% | 0% | 20% | 90% | 80% | 100% | 90% | 90% | 40% | 100% | 100% |
| CCc1ccc(-c2ccc(Cl)cc2)cc1C1=C(O)[C@H]2[C@@H](C1=O)[C@]1(C)C=C[C@@]2(C)O1 [Compound T12] | 90% | 20% | 70% | 60% | 100% | 100% | 100% | 100% | 100% | 80% | 100% | 100% |
| Cc1cc(-c2ccccc2)cc(C)c1C1=C(OC(=O)C(C)(C)C)[C@H]2[C@@H](C1=O)[C@@H]1CC[C@H]2O1 (racemic) [Compound P1, (1RS,2SR,6RS,7SR)-4-(3,5-dimethylbiphenyl-4-yl)-5-oxo-10-oxa-tricyclo[5.2.1.0^2,6]dec-3-en-3-yl 2,2-dimethylpropionate] | 100% | 70% | 100% | 100% | 100% | 90% | 100% | 50% | 100% | 90% | 80% | 80% |
| CCc1ccc(-c2ccc(Cl)c(Cl)c2F)cc1C1=C(O)[C@H]2[C@@H](C1=O)[C@]1(C)CC[C@@]2(C)O1 [Compound T40] | 50% | 10% | 10% | 0% | 100% | 70% | 100% | 40% | 60% | 30% | 100% | 80% |
| CCc1ccc(-c2ccc(Cl)cc2)cc1C1=C(O)[C@H]2[C@@H](C1=O)[C@@H]1CC[C@H]2O1 [Compound T2] | 90% | 40% | 70% | 50% | 70% | 80% | 100% | 100% | 100% | 80% | 100% | 100% |
| CCc1ccc(-c2ccc(Cl)s2)cc1C1=C(O)[C@H]2[C@@H](C1=O)[C@]1(C)CC[C@@]2(C)O1 [Compound T32] | 70% | 0% | 30% | 60% | 30% | 100% | 100% | 70% | 70% | 60% | 70% | 70% |
